Test results as given in ChEMBL document CHEMBL1201862, “PubChem BioAssay data set” (2004).
Activity calls are given as the source filed them.

How the values were obtained:
NADPH oxidase 1 = NADPH oxidase 1 (Homo sapiens, UniProt Q9Y5S8); assay: Late-stage luminescence-based cell-based dose response assay to identify inhibitors of NADPH oxidase 1 (NOX1): Synthesized analogs.; type: functional
[1] = target: G-protein coupled receptor 55 (Homo sapiens, UniProt Q9Y2T6); assay: selective activators of receptor GPR55 – imaging, U2OS cells, beta-arrestin-GFP redistribution, primary screen (AID 1961); type: functional
Large T antigen = Large T antigen (Simian virus 40, UniProt P03070); type: functional, Betapolyomavirus macacae;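 also: Confirmatory-stage PubChem screen for compounds that inhibit SV40 T antigen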
[2] = target: Induced myeloid leukemia cell differentiation protein Mcl-1 (Homo sapiens, UniProt Q07820); type: functional
[3] = target: Eukaryotic translation initiation factor 4E (Mus musculus, UniProt P63073); assay: blockers of eIF4G binding by eIF4E – biochemical, TR-FRET, dose response (AID 855); type: functional;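 also: potency for disrupting eIF4E binding to eIF4GI seen as loss of FRET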
Hexokinase HKDC1 = target: T1, Hexokinase HKDC1 (Homo sapiens, UniProt Q2TB90); assay: inhibition of HKDC1 glucose phosphorylation – biochemical, W721R variant, dose response (AID 504729); type: functional
T1 sequence (Q2TB90 whole entry): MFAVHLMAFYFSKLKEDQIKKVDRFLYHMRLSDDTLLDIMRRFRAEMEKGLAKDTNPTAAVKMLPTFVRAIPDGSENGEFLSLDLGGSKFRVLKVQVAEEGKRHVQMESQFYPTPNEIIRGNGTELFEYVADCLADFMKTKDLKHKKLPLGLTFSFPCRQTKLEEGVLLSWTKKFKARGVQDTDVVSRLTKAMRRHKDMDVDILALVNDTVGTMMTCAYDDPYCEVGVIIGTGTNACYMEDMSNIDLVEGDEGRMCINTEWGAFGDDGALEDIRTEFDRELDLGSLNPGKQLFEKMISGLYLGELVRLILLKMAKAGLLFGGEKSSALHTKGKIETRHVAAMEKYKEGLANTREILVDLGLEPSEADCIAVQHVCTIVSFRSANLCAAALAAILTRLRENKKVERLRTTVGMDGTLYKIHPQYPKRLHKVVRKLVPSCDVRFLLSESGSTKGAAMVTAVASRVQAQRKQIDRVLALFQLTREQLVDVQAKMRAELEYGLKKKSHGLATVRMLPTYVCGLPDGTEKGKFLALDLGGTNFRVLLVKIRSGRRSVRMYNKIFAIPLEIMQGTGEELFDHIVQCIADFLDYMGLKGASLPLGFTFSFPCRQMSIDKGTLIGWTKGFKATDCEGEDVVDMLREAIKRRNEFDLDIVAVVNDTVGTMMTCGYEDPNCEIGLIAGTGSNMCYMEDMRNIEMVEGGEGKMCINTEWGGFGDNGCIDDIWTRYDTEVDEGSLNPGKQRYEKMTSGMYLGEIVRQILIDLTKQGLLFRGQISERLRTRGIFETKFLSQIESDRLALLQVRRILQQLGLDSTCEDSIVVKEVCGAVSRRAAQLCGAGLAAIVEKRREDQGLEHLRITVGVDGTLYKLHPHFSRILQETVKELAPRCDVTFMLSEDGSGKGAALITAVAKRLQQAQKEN

Protein Tat = Protein Tat (Human immunodeficiency virus type 1 group M subtype B (isolate HXB2)(HIV-1), UniProt P04608); type: functional;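 also: tat binding to TAR RNA read out by fluorescence polarization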
[4] = Luminescent dose response cell-based high throughput screening assay for inhibitors of the Janus kinase 2 mutant JAK2V617F. [Related pubchem assays: 1446 (Primary screen.), 1521 (Confirmation assay.), 1486 (Counter screen.)]; type: functional
BJ [5] = assay: BJ-TERT fibroblast viability loss – cell-based, RAS-independent, luminescence, dose response (AID 1933); type: functional; conditions: Homo sapiens
BJ [6] = assay: cells; type: functional, cell-based; conditions: Homo sapiens
BJ [7] = assay: BJ-TERT-LT-ST fibroblast viability loss – cell-based, RAS-independent, luminescence, dose response (AID 1935); type: functional; conditions: Homo sapiens;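 also: BJ fibroblasts immortalized with TERT plus LT and ST oncogenes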
[8] = DRD fibroblast viability loss – cell-based, non-viral oncogenic, luminescence, dose response (AID 1934); type: functional; conditions: Homo sapiens
[9] = NIH-3T3 fibroblast cytotoxicity, dose response, cytotoxicity control, cell-based, fluorescence, Alamar Blue, secondary assay (AID 2327); type: functional;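 also: NIH-3T3 mouse fibroblasts cultured with fluconazole at 8 µg/mL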
[10] = fluconazole-exposed Candida albicans growth modulators – fluorescence, retest, confirmation (AID 2467); type: functional, cell-based
[11] = target: T2, Mannose-6-phosphate isomerase (Homo sapiens, UniProt P34949); assay: MPI enzyme activity inhibition – biochemical, fluorescence intensity, coupled assay, primary screen (AID 1209)
T2 sequence (P34949 whole entry): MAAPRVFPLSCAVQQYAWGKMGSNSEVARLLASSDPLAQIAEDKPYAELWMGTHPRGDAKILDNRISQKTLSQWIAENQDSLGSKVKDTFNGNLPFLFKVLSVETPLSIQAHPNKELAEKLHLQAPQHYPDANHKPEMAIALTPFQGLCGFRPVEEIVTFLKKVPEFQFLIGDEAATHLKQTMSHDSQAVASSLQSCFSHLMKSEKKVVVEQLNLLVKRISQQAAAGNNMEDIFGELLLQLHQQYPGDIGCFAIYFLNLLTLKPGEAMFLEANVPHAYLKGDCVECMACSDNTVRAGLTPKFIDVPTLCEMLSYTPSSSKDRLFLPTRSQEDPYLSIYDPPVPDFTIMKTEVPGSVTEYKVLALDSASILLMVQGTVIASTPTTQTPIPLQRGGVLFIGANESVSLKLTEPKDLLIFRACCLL

[12] = target: T2, Mannose-6-phosphate isomerase; assay: MPI inhibition at elevated mannose 6-phosphate – biochemical, fluorescence intensity, high mannose 6-phosphate, primary screen (AID 1220)
[13] = target: Heat shock protein HSP 90-alpha (Homo sapiens, UniProt P07900); type: functional, organism-based
[14] = target: T3, Rac GTPase-activating protein 1 (Homo sapiens, UniProt Q9H0H5); assay: blockers of MgcRacGAP-driven Rac1 GTP hydrolysis – biochemical, ADP Hunter fluorescence, primary and confirmatory, confirmation (AID 624330); type: functional
T3 sequence (Q9H0H5 whole entry): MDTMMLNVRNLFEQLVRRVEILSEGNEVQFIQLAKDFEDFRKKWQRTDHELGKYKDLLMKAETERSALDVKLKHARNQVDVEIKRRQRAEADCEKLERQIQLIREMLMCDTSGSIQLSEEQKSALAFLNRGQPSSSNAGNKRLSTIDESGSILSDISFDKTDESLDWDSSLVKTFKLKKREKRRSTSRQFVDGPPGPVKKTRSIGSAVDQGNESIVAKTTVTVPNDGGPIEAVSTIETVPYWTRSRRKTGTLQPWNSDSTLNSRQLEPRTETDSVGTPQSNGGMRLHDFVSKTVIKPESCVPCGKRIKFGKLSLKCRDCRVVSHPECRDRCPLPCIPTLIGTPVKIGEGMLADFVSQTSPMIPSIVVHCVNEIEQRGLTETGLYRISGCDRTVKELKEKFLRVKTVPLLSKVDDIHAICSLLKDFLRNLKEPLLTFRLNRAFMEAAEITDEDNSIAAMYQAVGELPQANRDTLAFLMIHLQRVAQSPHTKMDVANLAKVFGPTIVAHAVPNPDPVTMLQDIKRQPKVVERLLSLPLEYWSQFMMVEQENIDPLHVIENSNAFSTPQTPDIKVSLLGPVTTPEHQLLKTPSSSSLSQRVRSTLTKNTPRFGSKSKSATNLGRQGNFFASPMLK

[15] = target: T4, RNA-binding protein pos-1 (Caenorhabditis elegans, UniProt G5EF15); assay: disruptors of C. elegans POS-1 RNA interaction – biochemical, fluorescence polarization, dose response (AID 1964);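 also: purified POS-1 fused to maltose binding protein made in E. coli; potency of compounds blocking POS-1 binding to fluorescent RNA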
T4 sequence (G5EF15 whole entry): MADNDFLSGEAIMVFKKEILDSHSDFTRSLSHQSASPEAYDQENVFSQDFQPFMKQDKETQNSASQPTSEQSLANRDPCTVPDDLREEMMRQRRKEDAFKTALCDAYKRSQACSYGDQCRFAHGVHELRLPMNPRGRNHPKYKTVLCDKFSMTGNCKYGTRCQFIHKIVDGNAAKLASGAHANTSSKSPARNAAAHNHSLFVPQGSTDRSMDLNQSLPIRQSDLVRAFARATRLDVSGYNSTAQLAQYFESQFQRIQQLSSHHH

[16] = target: T5, Zinc finger protein mex-5 (Caenorhabditis elegans, UniProt Q9XUB2); assay: potency of MEX-5 RNA-binding blockers – biochemical, C. elegans, fluorescence polarization, dose response (AID 1960)
T5 sequence (Q9XUB2 whole entry): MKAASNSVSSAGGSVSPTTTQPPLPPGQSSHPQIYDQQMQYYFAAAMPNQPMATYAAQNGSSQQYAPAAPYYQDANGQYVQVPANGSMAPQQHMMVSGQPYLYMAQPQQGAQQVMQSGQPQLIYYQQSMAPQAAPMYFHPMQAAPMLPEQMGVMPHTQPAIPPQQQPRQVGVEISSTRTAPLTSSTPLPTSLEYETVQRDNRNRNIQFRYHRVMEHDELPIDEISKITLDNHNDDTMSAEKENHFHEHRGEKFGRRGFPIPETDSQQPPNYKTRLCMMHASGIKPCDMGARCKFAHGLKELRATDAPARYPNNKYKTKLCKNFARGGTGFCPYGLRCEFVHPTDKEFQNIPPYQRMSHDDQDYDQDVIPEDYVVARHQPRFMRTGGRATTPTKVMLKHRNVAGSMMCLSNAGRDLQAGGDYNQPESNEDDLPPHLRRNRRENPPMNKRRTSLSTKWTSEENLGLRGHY

14-3-3 protein gamma = 14-3-3 protein gamma (Homo sapiens, UniProt P61981); assay: modulators of 14-3-3 gamma client binding – dose response (AID 711); type: functional
[17] = target: Peroxisome proliferator-activated receptor gamma/Nuclear receptor coactivator 2 (Homo sapiens, UniProt P37231); type: functional;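 also: agonist potency for raising coactivator recruitment to the receptor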
[18] = target: Peroxisome proliferator-activated receptor gamma/Nuclear receptor coactivator 1 (Homo sapiens, UniProt P37231); type: functional;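 also: agonist potency as compounds enhance coactivator SRC-1 recruitment to PPARgamma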
[19] = target: Peroxisome proliferator-activated receptor gamma/Nuclear receptor coactivator 3 (Homo sapiens, UniProt P37231); type: functional;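 also: agonist potency for raising coactivator recruitment to the receptor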
[20] = target: Peroxisome proliferator-activated receptor gamma/Nuclear receptor corepressor 2 (Homo sapiens, UniProt P37231+Q9Y618); assay: Counterscreen for NR2E3 inverse agonists: TR-FRET-based biochemical high throughput dose response assay to identify inverse agonists of the interaction between peroxisome proliferator-activated receptor gamma (PPARg) and nuclear receptor co-repressor 2 (NCOR2).; type: functional
[21] = target: Photoreceptor-specific nuclear receptor (Homo sapiens, UniProt Q9Y5X4); assay: ligands suppressing NR2E3 nuclear receptor activity – biochemical, TR-FRET, dose response (AID 463256); type: functional
[22] = target: Mitogen-activated protein kinase 10 (Homo sapiens, UniProt P53779); assay: Dose response biochemical screening assay for inhibitors of c-Jun N-Terminal Kinase 3 (JNK3). [Related pubchem assays: 746 ]
[23] = target: Dual specificity tyrosine-phosphorylation-regulated kinase 1A (Rattus norvegicus, UniProt Q63470); type: biochemical, Homo sapiens
[24] = rise of 2N DNA cells, HeLa – IC50, dose response (AID 1117349); type: functional, cell-based
[25] = CellTiter-Glo luminescence survival assay, SW480 colon tumor line, concentration-response curve, half-maximal inhibitory concentration (AID 1117338); type: functional
[26] = RKO cell viability reduction, dose response, CellTiter-Glo luminescence (AID 1117322); type: functional
[27] = cytotoxicity toward HCT116 cells – cell-based, CellTiter-Glo luminescence, IC50, dose response (AID 1117332); type: functional; conditions: HCT-116
[28] = SNU-C1 cell viability reduction, dose response, CellTiter-Glo luminescence (AID 1117323); type: functional, cell-based
[29] = rise of 4N DNA cells, HeLa – IC50, dose response (AID 1117351); type: functional, cell-based
[30] = cytotoxicity toward HT-29 cells – cell-based, CellTiter-Glo luminescence, IC50, dose response (AID 1117330); type: functional
[31] = Reduced DLD-1 viability, concentration-response, CellTiter-Glo luminescence (AID 1117352); type: functional
[32] = HCT116 cell viability decrease, GSK3B pretreatment – CellTiter-Glo, IC50, dose response (AID 1117339); type: functional; conditions: HCT-116

NADPH oxidase 1, sequence (Q9Y5S8 whole entry): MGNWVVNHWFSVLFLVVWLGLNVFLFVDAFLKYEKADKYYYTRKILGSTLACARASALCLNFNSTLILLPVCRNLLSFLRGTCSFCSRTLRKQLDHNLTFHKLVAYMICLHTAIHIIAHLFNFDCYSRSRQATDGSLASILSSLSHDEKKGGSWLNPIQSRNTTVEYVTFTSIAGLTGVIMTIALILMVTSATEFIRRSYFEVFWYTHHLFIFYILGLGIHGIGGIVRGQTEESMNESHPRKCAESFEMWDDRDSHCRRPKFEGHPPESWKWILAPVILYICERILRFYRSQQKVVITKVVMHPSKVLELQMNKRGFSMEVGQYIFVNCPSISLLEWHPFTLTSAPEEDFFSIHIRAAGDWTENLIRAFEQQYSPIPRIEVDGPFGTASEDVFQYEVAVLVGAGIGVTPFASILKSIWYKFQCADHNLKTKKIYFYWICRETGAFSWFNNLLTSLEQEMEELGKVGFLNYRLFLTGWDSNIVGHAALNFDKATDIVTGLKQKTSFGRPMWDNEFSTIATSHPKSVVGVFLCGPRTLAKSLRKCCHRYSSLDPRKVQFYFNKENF
Eukaryotic translation initiation factor 4E, sequence (P63073 whole entry): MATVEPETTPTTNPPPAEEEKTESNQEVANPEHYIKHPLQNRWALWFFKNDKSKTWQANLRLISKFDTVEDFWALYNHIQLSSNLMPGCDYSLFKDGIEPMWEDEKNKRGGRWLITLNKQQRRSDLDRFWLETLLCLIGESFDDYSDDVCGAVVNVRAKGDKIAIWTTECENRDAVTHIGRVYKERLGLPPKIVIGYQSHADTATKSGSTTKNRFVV
Mitogen-activated protein kinase 10, sequence (P53779 whole entry): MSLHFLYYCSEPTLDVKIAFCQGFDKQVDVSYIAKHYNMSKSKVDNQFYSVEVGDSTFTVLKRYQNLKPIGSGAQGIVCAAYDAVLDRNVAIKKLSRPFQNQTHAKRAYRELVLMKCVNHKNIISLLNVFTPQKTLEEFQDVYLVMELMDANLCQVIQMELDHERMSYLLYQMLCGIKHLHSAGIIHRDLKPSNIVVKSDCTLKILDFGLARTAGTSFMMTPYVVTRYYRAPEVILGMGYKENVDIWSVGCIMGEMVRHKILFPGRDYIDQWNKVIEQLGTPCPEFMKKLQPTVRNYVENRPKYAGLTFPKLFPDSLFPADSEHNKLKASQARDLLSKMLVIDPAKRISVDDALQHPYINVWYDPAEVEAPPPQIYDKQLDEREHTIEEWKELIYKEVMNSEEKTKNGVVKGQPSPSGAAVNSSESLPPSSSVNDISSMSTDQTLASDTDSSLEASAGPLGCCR
G-protein coupled receptor 55, sequence (Q9Y2T6 whole entry): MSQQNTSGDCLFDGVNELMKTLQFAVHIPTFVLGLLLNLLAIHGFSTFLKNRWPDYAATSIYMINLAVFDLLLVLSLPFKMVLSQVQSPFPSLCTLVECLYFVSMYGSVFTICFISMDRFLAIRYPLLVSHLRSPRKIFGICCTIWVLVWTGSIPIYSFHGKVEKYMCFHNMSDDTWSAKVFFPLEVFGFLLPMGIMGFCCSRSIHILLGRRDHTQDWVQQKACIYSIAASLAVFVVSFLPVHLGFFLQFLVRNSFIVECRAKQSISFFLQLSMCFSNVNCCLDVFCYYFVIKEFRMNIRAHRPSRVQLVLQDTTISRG
Large T antigen, sequence (P03070 whole entry): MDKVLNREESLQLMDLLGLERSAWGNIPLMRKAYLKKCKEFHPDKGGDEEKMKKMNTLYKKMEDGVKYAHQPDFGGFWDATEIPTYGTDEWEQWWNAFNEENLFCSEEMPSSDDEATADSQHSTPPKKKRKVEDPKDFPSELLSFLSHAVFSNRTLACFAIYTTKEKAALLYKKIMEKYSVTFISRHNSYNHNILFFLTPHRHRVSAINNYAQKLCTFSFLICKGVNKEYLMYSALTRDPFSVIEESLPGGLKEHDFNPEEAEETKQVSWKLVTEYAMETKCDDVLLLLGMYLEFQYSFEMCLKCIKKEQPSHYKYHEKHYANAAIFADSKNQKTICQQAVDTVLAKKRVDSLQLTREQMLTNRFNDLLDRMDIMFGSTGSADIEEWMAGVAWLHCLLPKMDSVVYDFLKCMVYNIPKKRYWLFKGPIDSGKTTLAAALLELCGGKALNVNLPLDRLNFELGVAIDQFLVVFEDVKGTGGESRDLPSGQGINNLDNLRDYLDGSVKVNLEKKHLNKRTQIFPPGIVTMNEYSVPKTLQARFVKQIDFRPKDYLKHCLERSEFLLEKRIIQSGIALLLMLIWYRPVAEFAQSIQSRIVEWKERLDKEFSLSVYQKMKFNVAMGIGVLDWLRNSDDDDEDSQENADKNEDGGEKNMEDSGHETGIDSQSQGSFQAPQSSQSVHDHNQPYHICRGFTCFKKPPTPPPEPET
Photoreceptor-specific nuclear receptor, sequence (Q9Y5X4 whole entry): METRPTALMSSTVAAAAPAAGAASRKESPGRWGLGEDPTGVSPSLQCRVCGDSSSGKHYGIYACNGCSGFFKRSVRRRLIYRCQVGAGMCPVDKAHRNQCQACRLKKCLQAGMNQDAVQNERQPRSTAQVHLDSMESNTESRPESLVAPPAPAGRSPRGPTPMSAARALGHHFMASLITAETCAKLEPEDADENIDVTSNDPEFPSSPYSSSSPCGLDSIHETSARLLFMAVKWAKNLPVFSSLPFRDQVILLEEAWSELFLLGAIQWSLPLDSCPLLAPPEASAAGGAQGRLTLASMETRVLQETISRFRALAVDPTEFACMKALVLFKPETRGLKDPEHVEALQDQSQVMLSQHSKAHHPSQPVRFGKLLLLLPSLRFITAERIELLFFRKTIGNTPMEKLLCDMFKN
Induced myeloid leukemia cell differentiation protein Mcl-1, sequence (Q07820 whole entry): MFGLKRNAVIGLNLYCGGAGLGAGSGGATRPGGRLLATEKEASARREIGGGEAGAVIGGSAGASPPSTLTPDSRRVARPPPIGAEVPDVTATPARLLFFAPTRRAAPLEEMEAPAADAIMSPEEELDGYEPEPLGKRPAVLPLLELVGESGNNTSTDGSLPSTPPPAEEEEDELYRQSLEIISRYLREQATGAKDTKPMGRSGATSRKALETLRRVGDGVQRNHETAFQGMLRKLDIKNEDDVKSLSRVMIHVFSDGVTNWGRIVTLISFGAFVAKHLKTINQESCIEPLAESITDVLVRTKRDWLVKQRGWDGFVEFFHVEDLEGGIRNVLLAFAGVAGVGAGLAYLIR
14-3-3 protein gamma, sequence (P61981 whole entry): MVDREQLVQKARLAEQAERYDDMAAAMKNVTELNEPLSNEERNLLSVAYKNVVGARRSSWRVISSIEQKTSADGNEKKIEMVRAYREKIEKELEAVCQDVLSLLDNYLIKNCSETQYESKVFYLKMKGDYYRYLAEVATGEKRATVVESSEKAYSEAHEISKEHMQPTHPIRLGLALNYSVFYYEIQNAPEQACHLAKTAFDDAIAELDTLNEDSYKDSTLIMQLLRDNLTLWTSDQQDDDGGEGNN
Protein Tat, sequence (P04608 whole entry): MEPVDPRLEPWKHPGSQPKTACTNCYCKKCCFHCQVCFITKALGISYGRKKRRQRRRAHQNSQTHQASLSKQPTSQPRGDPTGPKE

SMILES: O=C(CSc1nc2ccccc2o1)N1c2ccccc2Sc2ccc(C(F)(F)F)cc21
- IC50 (NADPH oxidase 1): > 50 µM (not active)
- EC50 [1]: > 32 µM (inactive)

SMILES: O=C1NC(=S)N(c2ccc(F)cc2)C(=O)/C1=C\c1ccoc1
- IC50 (Large T antigen): 12.8 µM (active)
- IC50 [2]: 1.53 µM (active)
- IC50 [3]: 50 µM (inactive)
- IC50 (Hexokinase HKDC1): 10.7 µM (active)
- IC50 (Protein Tat): > 25 µM (active)

SMILES: COc1ccc(Nc2nc(N)nc(CCl)n2)cc1
- IC50 [4]: 1.45 µM (active)
- EC50 (BJ [5]): 0.498 µM (inconclusive)
- EC50 (BJ [6]): 3.57 µM (active)
- EC50 (BJ [7]): > 150 µM (inconclusive)
- EC50 [8]: 2.25 µM (active)

SMILES: Cc1ccc(/C=[N+](\[O-])c2ccc(N(C)C)cc2)c2nsnc12
- EC50 [9]: 8.84 µM (inconclusive)
- EC50 [10]: 2.41 µM (active)
- IC50 [11]: > 50 µM (not active)
- IC50 [12]: > 50 µM (not active)
- AC50 [13]: 7.84 µM (active)
- IC50 [14]: 9.25 µM (active)

SMILES: CC1=CC(C#N)(C#N)C(C#N)(C#N)C(c2ccccc2)N1 (configuration not stated)
- EC50 [15]: 3.14 µM (active)
- EC50 [16]: 2.46 µM (active)
- IC50 (14-3-3 protein gamma): 3.15 µM (active)

SMILES: Cn1c(SCC(=O)Nc2cccc(Br)c2)nnc1-c1cc2ccccc2o1
- EC50 [17]: 14.5 µM (not active)
- EC50 [18]: 13.3 µM (not active)
- EC50 [19]: 18.3 µM (not active)
- IC50 [20]: 0.152 µM (active)
- IC50 [21]: 0.167 µM (active)

SMILES: C/C(=N/Cc1cccnc1)C1=C(O)c2ccccc2C1=O
- IC50 [22]: 20 µM (not active)
- AC50 [23]: 12.9 µM (active)

SMILES: CC(C)c1c(C(=O)Nc2ccccc2)c(-c2ccccc2)c(-c2ccc(F)cc2)n1CC[C@@H](O)C[C@@H](O)CC(=O)O [ATORVASTATIN CALCIUM]
- IC50 [24]: > 10 µM (inactive)
- IC50 [25]: > 20 µM (inactive)
- IC50 [26]: > 20 µM (inactive)
- IC50 [27]: > 20 µM (inactive)
- IC50 [28]: > 20 µM (inactive)
- IC50 [29]: > 10 µM (inactive)
- IC50 [30]: > 20 µM (inactive)
- IC50 [31]: > 20 µM (inactive)
- IC50 [32]: 4.79 µM (active)
